Experimental data from ChEMBL document CHEMBL4308881, “Tetradehydrohalicyclamine B, a new proteasome inhibitor from the marine sponge Acanthostrongylophora ingens” (Bioorg Med Chem Lett, 2019).
Active and inactive are the calls of the source. The rule behind the calls is not given here.

How the values were obtained:
Format in all cases: cell-based
[1] = target: T1, Proteasome subunit beta type-9 (Homo sapiens, UniProt P28065); assay: Inhibition of 20s immunoproteasome LMP2 in human erythrocytes using Ac-Pro-Ala-Leu-MCA as substrate preincubated for 10 mins followed by substrate addition and measured after 6 hrs by fluorescence assay
T1 sequence (P28065 whole entry): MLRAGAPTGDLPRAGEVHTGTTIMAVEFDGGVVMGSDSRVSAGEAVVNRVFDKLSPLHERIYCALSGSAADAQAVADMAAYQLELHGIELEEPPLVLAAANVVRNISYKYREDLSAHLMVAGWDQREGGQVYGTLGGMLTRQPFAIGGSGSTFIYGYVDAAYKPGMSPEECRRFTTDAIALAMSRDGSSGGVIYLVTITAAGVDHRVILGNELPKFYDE

[2] = target: T2, Proteasome subunit beta type-8 (Homo sapiens, UniProt P28062); assay: Inhibition of 20s immunoproteasome LMP7 in human erythrocytes using Suc-Leu-Leu-ValTyr-MCA as substrate preincubated for 10 mins followed by substrate addition and measured after 6 hrs by fluorescence assay
T2 sequence (P28062 whole entry): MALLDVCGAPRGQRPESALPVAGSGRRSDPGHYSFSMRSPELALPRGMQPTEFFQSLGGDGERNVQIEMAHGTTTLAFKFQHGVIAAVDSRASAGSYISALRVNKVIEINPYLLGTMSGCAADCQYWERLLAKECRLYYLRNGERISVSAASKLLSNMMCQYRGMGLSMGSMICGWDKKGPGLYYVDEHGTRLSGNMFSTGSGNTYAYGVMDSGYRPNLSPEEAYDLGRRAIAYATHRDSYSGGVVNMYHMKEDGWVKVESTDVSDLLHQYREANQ

[3] = target: T3, Proteasome subunit beta type-10 (Homo sapiens, UniProt P40306); assay: Inhibition of 20s immunoproteasome MECL1 in human erythrocytes using Suc-Leu-Leu-ValTyr-MCA as substrate preincubated for 10 mins followed by substrate addition and measured after 6 hrs by fluorescence assay
T3 sequence (P40306 whole entry): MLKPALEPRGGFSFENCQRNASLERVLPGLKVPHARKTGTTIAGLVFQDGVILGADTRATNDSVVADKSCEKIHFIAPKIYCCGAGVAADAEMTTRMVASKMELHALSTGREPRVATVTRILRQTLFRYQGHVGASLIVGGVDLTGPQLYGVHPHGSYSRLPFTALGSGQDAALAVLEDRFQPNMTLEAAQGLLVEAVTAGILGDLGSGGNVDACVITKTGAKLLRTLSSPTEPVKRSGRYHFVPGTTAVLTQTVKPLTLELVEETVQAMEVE

[4] = target: T4, Proteasome Macropain subunit MB1 (Homo sapiens, UniProt P28074); assay: Inhibition of 20s constitutive proteasome beta5 chymotrypsin-like activity in human erythrocytes using Suc-Leu-Leu-ValTyr-MCA as substrate preincubated for 10 mins followed by substrate addition and measured after 6 hrs by fluorescence assay
T4 sequence (P28074 whole entry): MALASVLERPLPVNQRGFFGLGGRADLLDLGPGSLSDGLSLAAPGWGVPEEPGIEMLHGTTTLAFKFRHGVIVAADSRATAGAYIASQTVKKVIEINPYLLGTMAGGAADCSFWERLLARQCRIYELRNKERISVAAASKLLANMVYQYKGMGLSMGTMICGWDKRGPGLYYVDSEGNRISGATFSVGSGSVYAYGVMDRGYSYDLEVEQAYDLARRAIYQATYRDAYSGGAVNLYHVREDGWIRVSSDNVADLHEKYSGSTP

HeLa [5] = assay: Cytotoxicity against human HeLa cells after 3 days by MTT assay; details: 72 h
HeLa [6] = assay: Cytotoxicity against human HeLa cells at 50 uM after 3 days by MTT assay; details: 72 h
[7] = target: T5, Proteasome subunit beta type-10 (Homo sapiens) (UniProt P40306); assay: Inhibition of 20s immunoproteasome MECL1 in human erythrocytes at 15 uM using Suc-Leu-Leu-ValTyr-MCA as substrate preincubated for 10 mins followed by substrate addition and measured after 6 hrs by fluorescence assay
T5 sequence (whole entry): T3 sequence (P40306 whole entry)

IC50 [1] | IC50 [2] | IC50 [3] | IC50 [4] | inhibition [7] | SMILES | IC50 (HeLa [5]) | Activity (HeLa [6])
0.44 µM | 0.63 µM | 8 µM | 0.42 µM |  | C1=C2CN3CCCC/C=C\CC[C@@H]4CN(CCCC/C=C\CC[C@H]1C3)CC[C@@H]24 | 12 µM | 
3.1 µM | 4.1 µM |  | 1.8 µM | inactive | C1=C\CCc2cc3c[n+](c2)CCCC/C=C\CC[C@@H]2CN(CCCC/1)CC[C@@H]32 |  | Non-Toxic
